{
  "source": "patent US20040229205A1",
  "about": "“Compositions for the storage of platelets” (priority 2003, published 2004)",
  "type_in_all_cases": "cell-based",
  "key": {"platelets": {"test_system": "platelets", "assay": "Preservation of platelet function in stored platelets, methods of examples 1 to 6", "procedure": "It is known that other pentoses may have similar effects as D-Ribose, either through intracellular conversion to riboe or a direct effect. Ribulose-5-phosphate, xylulose-5-phosphate and xylitol were tested for preservation of activity in stored platelets according to the methods of examples 1 to 6.\nBacterial contamination was measured by colony counts in standard Petri dishes that had been inculated with the test solution. It is assumed that the millimolar glucose concentration in most platelet storage solutions contributes to the growth of bacteria. As noted above, Murphy (Table II) discloses a glucose-free solution for the storage of platelets. Elimination of reduction of glucose levels from millimolar to micromolar concentrations has a profound effect in reducing bacterial contamination, however, platelet function at five days, as measured by ATP secretion and P-selectin expression, was poor."}, "[1]": {"test_system": "platelets (P-selectin expression)", "assay": "P-selectin expression of stored platelets by flow cytometry, basal and after 10 nM thrombin challenge", "excerpt": "Internal protein expression may be measured by conjugation of a molecule with a fluorescent dye, followed by sorting in a fluorescent cell sorter. In general, it is preferable to use two monoclonal antibodies, one that binds a cell surface molecule expressed and a second that binds a cell surface molecule that is expressed only after activation. Each monoclonal antibody is conjugated to a different colored dye, that can be distinguished by spectrofluorometry. In the preferred embodiment, the normally expressed cell surface molecule is GPIIbIIIa; the cell surface molecule expressed after activation is P-selectin. It is well know in the art to make monoclonal antibodies to proteins. U.S. Pat. No. 5,470,738, issued in 1995 to Freilich et al, is one example of a method of making monoclonal antibodies to GPIIIa. Another anti-platelet monoclonal antibody is that to GP IV, as disclosed by U.S. Pat. No. 5,231,025, issued in 1993 to Gralnisch. However, it is most convenient to purchase antibodies commercially from such companies as Becton-Dickinson (Philadelphia).\nA basal measurement of spontaneous activation is obtained and the cells are then challenged with an agonist. The difference between cells challenged to activate minus the basal measurement is a measure of cell function. In the preferred embodiment, the agonist is 10 nM thrombin.\nP-selectin is an internal protein that is exposed on the surface of the platelet after activation. Once activated, platelets cannot be activated again, that is, they are nonfunctional. Platelets which have aggregated are likewise nonfunctional. Measurement of P-selectin before and after activation with thrombin provides a measure of the ability of the platelets to be activated.\nP-selectin expression in response to a challenge of 10 nM thrombin is a highly accurate and quantitative method to assess platelet function using flow cytometry techniques. A monoclonal antibody to the platelet GPIIbIIIa receptor (Becton-Dickinson) is conjugated with green fluorescence, marking all platelets with a green detection. […] About 10,000 to 25,000 platelets are counted and measured for P-selectin expression and the % positive cells are defined as activated platelets that express P-selectin. Platelets that are activated are not capable of being activated a second time; that is, they are essentially nonfunctional.\nIt was proposed years ago by Dawson (Transfusion 21:215-218. (1981)) that ribose at the concentration of 15 mM is beneficial to stored whole blood. It was assumed that ribose functioned by raising the energy levels of the cells, as discussed at length in U.S. Pat. No. 6,159,942. […] However, it should be noted that the platelet storage milieu is an austere environment, lacking the homeostatic and buffering mechanisms of the kidneys, lungs and livers of an intact organism. Various concentrations of D-Ribose were tested to determine the optimum level for platelet storage. […] Platelet concentrate bags were obtained from a local transfusion center within two hours of collection from the donor. The platelets were either supplemented with the D-Ribose cocktail directly into the bag or the platelets were divided into a series of 10 tubes into each of which two ml of platelets were added. Platelet function was assessed by ATP secretion, platelet aggregation, P-selectin expression, platelet count and pH. Platelet function was measured every 24 hours. The bags and tubes were placed on a rotating wheel at room temperature for the duration of the experiment.\nFor the concentration test, platelets were stored for five days in standard platelet storage solution at room temperature and gentle agitation with or without various levels of ribose. At five days the P-selectin expression test was performed."}, "[2]": {"test_system": "platelets (ATP secretion)", "assay": "ATP secretion of stored platelets in response to 10 nM thrombin (luciferin/luciferase)", "excerpt": "Yet another measure of platelet function is the secretion of ATP. Platelets that are able to function well are able to secrete ATP while cells that have already been activated or have lost funciton in other ways cannot secrete ATP.\nThe platelet dense granules shown in FIG. 1 contain ATP which is released in response to platelet agonists such as thrombin, collagen or adenosine diphosphate (ADP). The release reaction of ATP from platelets serves as another method to monitor platelet function. There are many methods to analyze ATP. A convenient method is the well known luciferin/luciferase reaction (Sigma Chemical, St. Louis). This assay is derived from the light producing system of the firefly. The substrate luciferin, in the presence of ATP, is cleaved by the enzyme luciferase, accompanied by the emission of light. The emitted light is measured by a photomultiplier tube\nPlatelet suspensions containing about 350 units in 40 μl were mixed with 10 μl luciferin/luciferase reagent. An agonist is injected. As the platelet dense granules release ATP, the bioluminescent reaction occurs, which is measured by the photomultiplier tube. […] The rate of reaction is recorded and as platelet function decays, the rate decays. Total ATP was measured by lysing the cells with Triton and determining ATP content. The results as presented in Table III are expressed as intact rate of ATP secretion."}, "platelets (aggregation)": {"test_system": "platelets (aggregation)", "assay": "Platelet aggregation on thrombin challenge (optical density / aggregometer)", "excerpt": "Another parameter of platelet function is the ability to aggregate when challenged by an agonist. The platelet suspension is dense and milky white. Aggregation and subsequent settling of the aggregates can be estimated visually, or measured with a densitometer.\nAs a second measure of the effect of ribose on platelets, platelet aggregation was estimated. Platelet aggregation is a crucial function of platelet activity; platelets that cannot aggregate are essentially nonfunctional. Platelets were stored as above. The optical density of the suspension was measured before and after thrombin challenge.\nPlatelet aggregation was measured with a platelet aggregometer (Chronolog, Inc., Irvine, Calif.). Platelet-rich, turbid suspensions were stirred in a cuvette and the transmittance of light through the sample relative to a platelet poor blank is recorded. When a aggregating agent is added, activated platelets with exposed fibrinogen receptors (GPIIbIIIa) are brought in close contact with each other in a medium containing calcium and fibrinogen and form increasingly large platelet aggregates, accompanied by a decrease in turbidity. The change in optical density was then translated by the instrument to percent aggregation. Simple stated, as platelets clump, more light passes through the cuvette."}, "[3]": {"details": "1.5 mM down to 150 pM, analyzed every 24 hours"}},
  "data": [
    {"smiles": "OC[C@@H](O)[C@H](O)[C@@H](O)CO", "note": "[xylitol]", "values": [
      {"measurement": "preservation of platelet function", "setting": "platelets", "value": "some benefit"}
    ]},
    {"smiles": "O=C(CO)[C@H](O)[C@H](O)COP(=O)(O)O", "note": "[Ribulose-5-phosphate]", "values": [
      {"measurement": "P-selectin expression in response to thrombin challenge versus controls", "setting": "[1]; [3]", "value": "No difference from controls"},
      {"measurement": "ATP secretion in response to 10 nM thrombin versus controls", "setting": "[2]; [3]", "value": "No difference from controls"},
      {"measurement": "platelet aggregation versus controls", "setting": "platelets (aggregation); [3]", "value": "No difference from controls"}
    ]},
    {"smiles": "O=C(CO)[C@@H](O)[C@H](O)COP(=O)(O)O", "note": "[xylulose-5-phosphate, Xylulose-5-phosphate]", "values": [
      {"measurement": "P-selectin expression in response to 10 nM thrombin challenge", "setting": "[1]; five-day treated platelets", "value": 67.7, "unit": "%"},
      {"measurement": "P-selectin spontaneous expression", "setting": "[1]; five-day treated platelets", "value": 37.5, "unit": "%"},
      {"measurement": "ATP secretion, retention of basal value", "setting": "[2]; five days storage", "value": 64.5, "unit": "%"},
      {"measurement": "platelet aggregation", "setting": "platelets (aggregation); five days storage", "value": "weak"}
    ]}
  ]
}
